Laboratory results reported in PMC6719172, “Inhibition of CpLIP2 Lipase Hydrolytic Activity by Four Flavonols (Galangin, Kaempferol, Quercetin, Myricetin) Compared to Orlistat and Their Binding Mechanisms Studied by Quenching of Fluorescence” (Molecules, 2019).

Key:
CpLIP2 lipase [1] = molecular target: T1, CpLIP2 lipase (Candida parapsilosis, UniProt Q8NIN8); experiment: Quenching of CpLIP2 intrinsic tryptophan fluorescence by flavonols (Stern–Volmer, Lehrer, van't Hoff analysis); assay type: binding; settings: for KSV (Stern–Volmer quenching constant): CpLIP2 2.5 µM, pH 7.0, flavonol 2.5–25 µM (GAL 2.5–17.5 µM); for Kq (bimolecular quenching constant): Kq = KSV/τ0, τ0 1.59 ns; for KSV (accessible), Stern–Volmer quenching constant of the exposed W residues / fa (fraction of accessible W residues to the quencher): Lehrer equation; for ΔG (free energy change): ΔG = ΔH − TΔS; for Kd: Kd (dissociation constant); for order of magnitude of Kq: all temperatures of Table 1; for ΔS (entropy changes): van't Hoff plot, 298–328 K
T1 sequence (Q8NIN8 entry or part of it): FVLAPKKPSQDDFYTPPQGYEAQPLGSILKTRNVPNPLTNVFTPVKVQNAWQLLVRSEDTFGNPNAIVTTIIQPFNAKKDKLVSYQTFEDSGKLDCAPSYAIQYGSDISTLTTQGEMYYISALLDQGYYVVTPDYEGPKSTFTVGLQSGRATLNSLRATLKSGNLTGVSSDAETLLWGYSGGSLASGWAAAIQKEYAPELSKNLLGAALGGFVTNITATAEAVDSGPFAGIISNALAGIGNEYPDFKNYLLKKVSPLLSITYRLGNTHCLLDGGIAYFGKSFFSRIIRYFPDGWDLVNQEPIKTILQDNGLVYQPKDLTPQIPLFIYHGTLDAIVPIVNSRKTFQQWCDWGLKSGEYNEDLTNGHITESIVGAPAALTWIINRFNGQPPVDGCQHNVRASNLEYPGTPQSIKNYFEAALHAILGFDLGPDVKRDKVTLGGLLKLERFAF
Source text: The fluorescence quenching spectra of CpLIP2 lipase submitted to increasing concentrations of GAL, KAE, QUE and MYR are shown in Figure 3. A remarkable quenching of the CpLIP2 fluorescence emission was observed. […] The fluorescence quenching is usually described by the linear Stern–Volmer Equations (2) and (3):(2) F0/F = 1 + Ksv [Q] = 1 + Kqτ0 [Q] (3) Kq=Ksv/τ0 where F0 and F are the intrinsic fluorescence intensities of CpLIP2 lipase (fluorophore) in absence or presence of quencher (flavonol), respectively. Kq is the bimolecular quenching constant, τ0 is the lifetime of the fluorophore in the absence of the quencher, [Q] is the concentration of the quencher, and KSV is the Stern–Volmer quenching constant.
The mechanism of quenching, occurring between CpLIP2 lipase and flavonols, was characterized by determining the values of Kq and the thermodynamic parameters by varying the temperature. […] In both cases, the bimolecular quenching constant Kq can be calculated by the ratio between KSV and τ0, itself determined at 1.59 ns for Human Pancreatic Lipase.
The inaccessible or buried residues are responsible for the remaining fluorescence, which is probably independent of the quencher concentration. […] An up-down curvature towards the x-axis has been shown for the four flavonols (Figure 4), indicating the presence of two populations of fluorophores, part of which would not be accessible. That means that some W residues are buried inside the lipase structure and that other residues are exposed to the solvent. Therefore, data were analyzed through the Lehrer equation, also known as the modified (or non-linear) Stern–Volmer Equation (4):(4) F0/ F0−F = 1/ fa Ksv 1/ [Q] +1/ fa
For static quenching, the equilibrium between free and bound CpLIP2 lipase, when the ligand molecules bind independently to equivalent sites of macromolecules, can be described by the following Equation (5):(5) log10F0−F/F=nlog10[Q]+log10Ka where Ka is the binding constant and n the number of binding sites per CpLIP2 molecule.
The results were determined for all flavonols tested at different temperatures from the plots of log10 F0 − F/F versus log10 [Q] and listed in Table 2. The plots show a linear relationship from which the slope equal to n and intercept on y-axis equal to log10 Ka. For the four flavonols, the Ka values increased when the temperatures increased. In addition, the n values were less than 1.0 in all cases and increased according to the temperature. […] Values of the dissociation constant of complexes were deduced from the Stern–Volmer Equation (6) and (7), for which Kd is expressed as the inverse of fa Ksv product. (6) F0/ F0−F= Kd 1/ [Q] +1 (7) Kd= 1/fa Ksv
Thermodynamic parameters were calculated to determine the type of binding forces that contribute in the CpLIP2 lipase–flavonol interactions. […] Both the enthalpy (ΔH) and entropy changes (ΔS) can be estimated from the following van′t Hoff Equation (8):(8) Ln Ka = − ΔH /RT + ΔS /R
The values of Gibbs binding free energy change (ΔG) are calculated from the following Equation (9):(9) ΔG= ΔH − TΔS
To fill up the volume of 300 µL by well, 190 µL of sodium phosphate buffer solution (75 mM, pH 7.0) was added to each well to obtain final concentration at 50 mM. Then, 100 µL of ethanol absolute–water ultrapure (2:8, v/v) solution was added to obtain a final amount of ethanol […] in the well of 300 µL. […] The final concentration of ethanol during the experiments never exceeded 0.07% (v/v). The last step was to add 10 µL of lipase after to have optimized the final concentration of CpLIP2 equal to 2.5 µM for all our assays, giving the optimal fluorescence intensity for all measurements. The measurement of intrinsic fluorescence started after mechanical shaking for 30 s inside the multi-plate reader. […]

CpLIP2 lipase [2] = molecular target: T1, CpLIP2 lipase; experiment: Fluorescence resonance energy transfer between CpLIP2 and flavonols (Förster theory); assay type: binding; settings: for E (energy transfer efficiency) / J (overlap integral) / R0 (Förster distance) / r (distance between acceptor and donor) / r/R0: 2.5 µM, 308 K, pH 7.0; as to R0 (Förster distance): values in Å; as to r (distance between acceptor and donor): values in Å
Source text: Fluorescence emission spectra of CpLIP2 lipase overlap the UV absorption spectrum of each flavonol studied, that may induce fluorescence resonance energy transfer (FRET) governed by the binding distance r between the protein behaving as energy donor and the flavonol energy acceptor. The binding distance r can be calculated via Förster theory with the following Equations (10) and (11):(10) E=1−F/ F0=R06/ R06+r^6 where E is the energy transfer efficiency, which is the photons fraction absorbed and transferred by the donor to the acceptor, F and F0 are the fluorescence intensities of donor (CpLIP2) in the presence or absence of acceptor (flavonol) at the same concentrations. The parameter r is the distance between acceptor and donor, and R0 is the Förster distance, which is the critical energy transfer distance when 50% of the excitation energy is transferred from the donor to the acceptor. […] The value of R0 ranges from 20–90 Å for biological macromolecules.

| Compound | Ka (association constant) (CpLIP2 lipase [1]; 298 K) | n (number of binding sites) (CpLIP2 lipase [1]; 298 K) | KSV (Stern–Volmer quenching constant) (CpLIP2 lipase [1]; 298 K) | Kq (bimolecular quenching constant) (CpLIP2 lipase [1]; 298 K) [M⁻¹ s⁻¹] | KSV (accessible), Stern–Volmer quenching constant of the exposed W residues (CpLIP2 lipase [1]; 298 K) [L/mol] | fa (fraction of accessible W residues to the quencher) (CpLIP2 lipase [1]; 298 K) | ΔG (free energy change) (CpLIP2 lipase [1]; 298 K) [kJ/mol] | Ka (association constant) (CpLIP2 lipase [1]; 308 K) [L/mol] | n (number of binding sites) (CpLIP2 lipase [1]; 308 K) | KSV (Stern–Volmer quenching constant) (CpLIP2 lipase [1]; 308 K) | Kq (bimolecular quenching constant) (CpLIP2 lipase [1]; 308 K) [M⁻¹ s⁻¹] | KSV (accessible), Stern–Volmer quenching constant of the exposed W residues (CpLIP2 lipase [1]; 308 K) [L/mol] | fa (fraction of accessible W residues to the quencher) (CpLIP2 lipase [1]; 308 K) | ΔG (free energy change) (CpLIP2 lipase [1]; 308 K) [kJ/mol] | Ka (association constant) (CpLIP2 lipase [1]; 318 K) [L/mol] | n (number of binding sites) (CpLIP2 lipase [1]; 318 K) | KSV (Stern–Volmer quenching constant) (CpLIP2 lipase [1]; 318 K) | Kq (bimolecular quenching constant) (CpLIP2 lipase [1]; 318 K) [M⁻¹ s⁻¹] | KSV (accessible), Stern–Volmer quenching constant of the exposed W residues (CpLIP2 lipase [1]; 318 K) [L/mol] | fa (fraction of accessible W residues to the quencher) (CpLIP2 lipase [1]; 318 K) | other results |
| --- | --- | --- | --- | --- | --- | --- | --- | --- | --- | --- | --- | --- | --- | --- | --- | --- | --- | --- | --- | --- | --- |
| O=c1c(O)c(-c2ccccc2)oc2cc(O)cc(O)c12 [GAL, galangin] | 323 ± 8 L/mol | 0.58 ± 0.18 | 2.9 ± 0.1 × 10^4 L·mol^−1 | 1.8e+13 | 360000 | 0.37 | -84.6 | 502 ± 10 | 0.63 ± 0.21 | 2.4 ± 0.9 × 10^4 L·mol^−1 | 1.5e+13 | 360000 | 0.34 | -87.5 | 616 ± 10 | 0.66 ± 0.21 | 2.1 ± 0.8 × 10^4 L·mol^−1 | 1.3e+13 | 290000 | 0.33 | ΔG (free energy change) (CpLIP2 lipase [1]; 318 K): -90.3 kJ/mol; n (number of binding sites) (CpLIP2 lipase [1]; 328 K): 0.66 ± 0.04; KSV (Stern–Volmer quenching constant) (CpLIP2 lipase [1]; 328 K): 1.5 ± 0.6 × 10^4 L·mol^−1; Kq (bimolecular quenching constant) (CpLIP2 lipase [1]; 328 K): 1e+13 M⁻¹ s⁻¹; KSV (accessible), Stern–Volmer quenching constant of the exposed W residues (CpLIP2 lipase [1]; 328 K): 420000 L/mol; fa (fraction of accessible W residues to the quencher) (CpLIP2 lipase [1]; 328 K): 0.25; ΔG (free energy change) (CpLIP2 lipase [1]; 328 K): -93.1 kJ/mol; Kd (CpLIP2 lipase [1]; 298 K): 8 ± 3 µM; Kd (CpLIP2 lipase [1]; 308 K): 8 ± 4 µM; Kd (CpLIP2 lipase [1]; 318 K): 11 ± 6 µM; Kd (CpLIP2 lipase [1]; 328 K): 10 ± 6 µM; order of magnitude of Kq (CpLIP2 lipase [1]): ~10^13 L mol^−1 s^−1; ΔS (entropy changes) (CpLIP2 lipase [1]): 0.28 kJ·mol^−1·K^−1; percentage of transfer efficiency (CpLIP2 lipase [2]): 24%; E (energy transfer efficiency) (CpLIP2 lipase [2]): 0.24; J (overlap integral) (CpLIP2 lipase [2]): 0.8 × 10^14 nm^4·cm^−1·M^−1; R0 (Förster distance) (CpLIP2 lipase [2]): 23.6 Å; r (distance between acceptor and donor) (CpLIP2 lipase [2]): 28.5 Å; r/R0 (CpLIP2 lipase [2]): 1.2 |
| O=c1c(O)c(-c2ccc(O)cc2)oc2cc(O)cc(O)c12 [KAE, kaempferol] | 458 ± 2. L·mol^−1 | 0.63 ± 0.07 | 2.1 ± 0.2 × 10^4 L·mol^−1 | 1.3e+13 | 140000 | 0.45 | -39.3 | 476 ± 4 | 0.63 ± 0.07 | 1.9 ± 0.7 × 10^4 L·mol^−1 | 1.2e+13 | 170000 | 0.43 | -40.6 | 862 ± 3 | 0.69 ± 0.09 | 1.8 ± 0.7 × 10^4 L·mol^−1 | 1.1e+13 | 150000 | 0.42 | ΔG (free energy change) (CpLIP2 lipase [1]; 318 K): -41.9 kJ/mol; Ka (association constant) (CpLIP2 lipase [1]; 328 K): 1290 ± 2 L/mol; n (number of binding sites) (CpLIP2 lipase [1]; 328 K): 0.75 ± 0.07; KSV (Stern–Volmer quenching constant) (CpLIP2 lipase [1]; 328 K): 1.6 ± 0.6 × 10^4 L·mol^−1; Kq (bimolecular quenching constant) (CpLIP2 lipase [1]; 328 K): 1e+13 M⁻¹ s⁻¹; KSV (accessible), Stern–Volmer quenching constant of the exposed W residues (CpLIP2 lipase [1]; 328 K): 150000 L/mol; fa (fraction of accessible W residues to the quencher) (CpLIP2 lipase [1]; 328 K): 0.34; ΔG (free energy change) (CpLIP2 lipase [1]; 328 K): -43.3 kJ/mol; Kd (CpLIP2 lipase [1]; 298 K): 16 ± 3 µM; Kd (CpLIP2 lipase [1]; 308 K): 14 ± 5 µM; Kd (CpLIP2 lipase [1]; 318 K): 16 ± 7 µM; Kd (CpLIP2 lipase [1]; 328 K): 19 ± 9 µM; order of magnitude of Kq (CpLIP2 lipase [1]): ~10^13 L mol^−1 s^−1; ΔS (entropy changes) (CpLIP2 lipase [1]): 0.13 kJ·mol^−1·K^−1; percentage of transfer efficiency (CpLIP2 lipase [2]): 12%; E (energy transfer efficiency) (CpLIP2 lipase [2]): 0.12; J (overlap integral) (CpLIP2 lipase [2]): 10 × 10^14 nm^4·cm^−1·M^−1; R0 (Förster distance) (CpLIP2 lipase [2]): 36.0 Å; r (distance between acceptor and donor) (CpLIP2 lipase [2]): 50.1 Å; r/R0 (CpLIP2 lipase [2]): 1.4 |
